The source of these data is patent US20150352108A1, “AMINO-PYRIMIDINE COMPOUNDS AS INHIBITORS OF TBK1 AND/OR IKK EPSILON” (Alzheimer's Institute of America, priority 2009, published 2015).

The target of experiment [1] is T1, IKKε (Homo sapiens, UniProt Q14164).
T1 construct: His-tag; made in house; host or cells: Sf9 insect cells
T1 sequence (Q14164 1-716): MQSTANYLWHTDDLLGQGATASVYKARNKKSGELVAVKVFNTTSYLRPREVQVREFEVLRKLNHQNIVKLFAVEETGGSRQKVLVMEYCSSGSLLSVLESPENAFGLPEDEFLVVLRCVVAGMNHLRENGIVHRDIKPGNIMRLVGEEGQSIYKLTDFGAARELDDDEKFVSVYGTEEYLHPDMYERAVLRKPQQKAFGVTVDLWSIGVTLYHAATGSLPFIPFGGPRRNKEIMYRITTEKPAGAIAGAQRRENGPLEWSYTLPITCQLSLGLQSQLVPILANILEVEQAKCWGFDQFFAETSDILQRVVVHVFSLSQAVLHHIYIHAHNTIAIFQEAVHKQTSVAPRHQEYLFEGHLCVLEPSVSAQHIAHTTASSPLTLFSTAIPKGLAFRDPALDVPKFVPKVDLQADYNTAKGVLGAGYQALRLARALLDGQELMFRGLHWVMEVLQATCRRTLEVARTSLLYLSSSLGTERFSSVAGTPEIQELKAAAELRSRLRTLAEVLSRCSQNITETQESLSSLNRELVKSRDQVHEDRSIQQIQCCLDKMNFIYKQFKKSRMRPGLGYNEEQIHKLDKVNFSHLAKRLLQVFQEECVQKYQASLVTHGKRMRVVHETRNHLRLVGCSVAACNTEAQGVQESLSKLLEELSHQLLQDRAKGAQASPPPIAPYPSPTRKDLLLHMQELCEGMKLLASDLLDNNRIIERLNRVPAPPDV
Description: In-vitro IKKε kinase assay ([γ33]ATP filter-plate). To be noted: text bins; read-out: IC50 for inhibition of the kinase activity of IKKε. The experiment is classed as biochemical. A digest of the protocol:
(§1)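 His-tagged IKKε and TBK1 from Sf9 cells were assayed with myelin basic protein or casein and [γ33]ATP at 2×Km ATP (32 μM for IKKε, 60 μM for TBK1). Enzyme was 0.1 or 0.015 μg/ml for IKKε and 0.1 or 0.02 μg/ml for TBK1 (normal/sensitized). Reactions ran 30-45 min, were filter-captured, scintillation-counted, and normalized to DMSO after background subtraction.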

The target of experiment [2] is T2, TBK1 (Homo sapiens, UniProt Q9UHD2).
T2 construct: His-tag; made in house; host or cells: Sf9 insect cells
T2 sequence (Q9UHD2 1-729): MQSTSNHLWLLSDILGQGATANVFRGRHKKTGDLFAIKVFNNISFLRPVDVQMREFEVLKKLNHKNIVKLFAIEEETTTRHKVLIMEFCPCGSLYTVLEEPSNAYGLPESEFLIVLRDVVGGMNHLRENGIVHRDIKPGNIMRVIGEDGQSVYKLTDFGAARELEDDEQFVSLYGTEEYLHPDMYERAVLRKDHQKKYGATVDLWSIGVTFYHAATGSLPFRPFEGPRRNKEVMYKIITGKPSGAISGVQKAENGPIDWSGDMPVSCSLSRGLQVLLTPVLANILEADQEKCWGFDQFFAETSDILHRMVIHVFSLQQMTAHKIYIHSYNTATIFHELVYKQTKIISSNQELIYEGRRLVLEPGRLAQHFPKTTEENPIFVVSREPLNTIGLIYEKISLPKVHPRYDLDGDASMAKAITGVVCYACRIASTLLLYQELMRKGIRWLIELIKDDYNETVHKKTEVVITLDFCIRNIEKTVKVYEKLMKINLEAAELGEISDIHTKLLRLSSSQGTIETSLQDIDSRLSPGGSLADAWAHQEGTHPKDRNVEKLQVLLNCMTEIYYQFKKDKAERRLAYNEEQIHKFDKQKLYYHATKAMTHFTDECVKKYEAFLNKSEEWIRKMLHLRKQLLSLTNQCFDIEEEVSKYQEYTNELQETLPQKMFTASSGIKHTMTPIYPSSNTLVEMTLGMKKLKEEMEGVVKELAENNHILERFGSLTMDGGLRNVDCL
Description: In-vitro TBK1 kinase assay ([γ33]ATP filter-plate). It counts as biochemical. The note with it: text bins; read-out: IC50 for inhibition of the kinase activity of TBK1. A digest of the protocol:
as §1

SMILES strings stand for the structures.

Turning to `COc1cc(Nc2nccc(-c3ccc(OC)c(C#N)c3)n2)cc(OCCN2CCOCC2)c1` [Example 138, 2-Methoxy-5-[2-({3-methoxy-5-[2-(morpholin-4-yl)ethoxy]phenyl}amino)pyrimidin-4-yl]benzonitrile], the concentration for half-maximal inhibition (IC50) in experiment [1] is 0.005 to 0.05 µM; in experiment [2] it was 0.01 to 0.1 µM.
Consider `CNc1ccc(-c2ccnc(Nc3ccc(N4CCOCC4)cc3)n2)cc1C#N` [Example 218, 2-(Methylamino)-5-(2-{[4-(morpholin-4-yl)phenyl]amino}pyrimidin-4-yl)benzonitrile], for which the IC50 was 0.005 to 0.05 µM in experiment [1] and below 0.01 µM in experiment [2].
With `N#Cc1cc(-c2ccnc(Nc3ccc(N4CCOCC4)cc3)n2)ccc1OC1CCN(C(=O)C2(N)CC2)C1` (stereo not drawn) [Example 189, 2-({1-[(1-aminocyclopropyl)carbonyl]pyrrolidin-3-yl}oxy)-5-(2-{[4-(morpholin-4-yl)phenyl]amino}pyrimidin-4-yl)benzonitrile], the half-inhibitory concentration (IC50) in experiment [1] lay in the range of 0.05 to 0.5 µM; in experiment [2], 0.1 to 0.5 µM.
With `N#Cc1cc(-c2ccnc(Nc3ccc(CS(=O)(=O)N4CCCC4)cc3)n2)ccc1OC1CCOCC1` [compound 403, 5-[2-({4-[(Pyrrolidin-1-ylsulfonyl)methyl]phenyl}amino)pyrimidin-4-yl]-2-(tetrahydro-2H-pyran-4-yloxy)benzonitrile], the concentration for half-maximal inhibition (IC50) in experiment [1] is below 0.005 µM; in experiment [2], below 0.01 µM.
On to `COc1cccc(Nc2nccc(-c3cccc(C#N)c3)n2)c1` [compound 389, 3-{2-[(3-Methoxyphenyl)amino]pyrimidin-4-yl}benzonitrile], for which the half-maximal inhibitory concentration (IC50) in experiment [1] lay in the range of 0.05 to 0.5 µM; in experiment [2], 0.1 to 0.5 µM.
`N#Cc1cc(-c2ccnc(Nc3ccc(NC(=O)Nc4ccncc4)cc3)n2)ccc1OC1CCOCC1` [Example 17, 1-[4-({4-[3-cyano-4-(tetrahydro-2H-pyran-4-yloxy)phenyl]pyrimidin-2-yl}amino)phenyl]-3-pyridin-4-ylurea]: the IC50 in experiment [1] is 0.005 to 0.05 µM; in experiment [2], 0.01 to 0.1 µM.
Consider `COc1ccc(-c2ccnc(Nc3ccc(S(=O)(=O)NCCN)c(OC)c3)n2)cc1C#N` [compound 366, N-(2-Aminoethyl)-4-{[4-(3-cyano-4-methoxyphenyl)pyrimidin-2-yl]amino}-2-methoxybenzene-sulfonamide], for which the results for the IC50 in experiment [1] and in experiment [2] were 0.005 to 0.05 µM and 0.01 to 0.1 µM, respectively.
As to `COc1ccc(-c2ccnc(Nc3cc(OC)c(OC)c(OC)c3)n2)cc1C#N` [compound 341, 2-methoxy-5-{2-[(3,4,5-trimethoxyphenyl)amino]pyrimidin-4-yl}benzonitrile], the IC50 in experiment [1] is below 0.005 µM; in experiment [2] it was below 0.01 µM.
Turning to `CN(C)CCOc1ccc(Nc2nccc(-c3cccc(C#N)c3)n2)cc1` [Example 291, 3-[2-({4-[2-(Dimethylamino)ethoxy]phenyl}amino)pyrimidin-4-yl]benzonitrile], the half-maximal inhibitory concentration (IC50) in experiment [1] was in the range of 0.05 to 0.5 µM; in experiment [2], 0.01 to 0.1 µM.
Consider `COc1ccc(-c2ccnc(Nc3ccc(N4CCCNC(=O)C4)c(OC)c3)n2)cc1C#N` [Example 104, 2-Methoxy-5-(2-{[3-methoxy-4-(3-oxo-1,4-diazepan-1-yl)phenyl]amino}pyrimidin-4-yl)benzonitrile], for which the concentration for half-maximal inhibition (IC50) in experiment [1] was below 0.005 µM; in experiment [2], below 0.01 µM.
Consider `COc1cc(Nc2nccc(-c3ccc(OC4CCNCC4)c(C#N)c3)n2)ccc1N1CCOCC1` [Example 186, 5-(2-{[3-methoxy-4-(morpholin-4-yl)phenyl]amino}pyrimidin-4-yl)-2-(piperidin-4-yloxy)benzonitrile], for which the results for the IC50 in experiment [1] and in experiment [2] were 0.005 to 0.05 µM and 0.01 to 0.1 µM, respectively.
`C[C@H](O)C(=O)N1CCC(Oc2ccc(-c3ccnc(Nc4ccc(N5CCOCC5)cc4)n3)cc2C#N)CC1` [Example 6, 2-({1-[(2S)-2-Hydroxypropanoyl]piperidin-4-yl}oxy)-5-(2-{[4-(morpholin-4-yl)phenyl]amino}pyrimidin-4-yl)benzonitrile]: the values for the half-inhibitory concentration (IC50) in experiment [1] and in experiment [2] were below 0.005 µM and below 0.01 µM, respectively.
For the compound `COc1cc(Nc2nccc(-c3ccc(NC(=O)C4CC4)c(C#N)c3)n2)ccc1CN1CC(OC)C1` [compound 570, N-{2-Cyano-4-[2-({3-methoxy-4-[(3-methoxyazetidin-1-yl)methyl]phenyl}amino)pyrimidin-4-yl]phenyl} cyclopropane-carboxamide], the IC50 in experiment [1] lay within 0.005 to 0.05 µM; in experiment [2], 0.01 to 0.1 µM.
For the compound `CC(C)Oc1ccc(-c2ccnc(Nc3ccc(N4CCOCC4)cc3)n2)cc1C#N` [Example 191, 5-(2-{[4-(Morpholin-4-yl)phenyl]amino}pyrimidin-4-yl)-2-(propan-2-yloxy)benzonitrile], the IC50 in experiment [1] is below 0.005 µM; in experiment [2] it was below 0.01 µM.
In the case of `COc1cc(NC(=O)NC[C@@H](C)O)cc(Nc2nccc(-c3ccc(OC)c(C#N)c3)n2)c1` [compound 343, 1-(3-{[4-(3-Cyano-4-methoxyphenyl)pyrimidin-2-yl]amino}-5-methoxyphenyl)-3-[(2R)-2-hydroxypropyl]urea], the 50% inhibitory concentration (IC50) was 0.005 to 0.05 µM in experiment [1] and below 0.01 µM in experiment [2].
Turning to `COc1ccc(Nc2nccc(-c3ccc(C)c(C#N)c3)n2)cc1OC` [Example 85, 5-{2-[(3,4-Dimethoxyphenyl)amino]pyrimidin-4-yl}-2-methylbenzonitrile], the half-inhibitory concentration (IC50) lay in the range of 0.005 to 0.05 µM in experiment [1] and 0.01 to 0.1 µM in experiment [2].
For `N#Cc1cc(-c2ccnc(Nc3ccc(N4CCOCC4)cc3)n2)ccc1OC1CCN(C(=O)CCO)CC1` [Example 215, 2-{[1-(3-Hydroxypropanoyl)piperidin-4-yl]oxy}-5-(2-{[4-(morpholin-4-yl)phenyl]amino}pyrimidin-4-yl)benzonitrile], the IC50 in experiment [1] is 0.005 to 0.05 µM; in experiment [2], below 0.01 µM.
Regarding `N#Cc1cc(-c2ccnc(Nc3ccc(N4CCOCC4)cc3)n2)ccc1OCCCO` [Example 210, 2-(3-Hydroxypropoxy)-5-(2-{[4-(morpholin-4-yl)phenyl]amino}pyrimidin-4-yl)benzonitrile], the results for the 50% inhibitory concentration (IC50) in experiment [1] and in experiment [2] were below 0.005 µM and below 0.01 µM, respectively.
`CC(C)CC(=O)Nc1ccc(-c2ccnc(Nc3ccc(N4CCOCC4)cc3)n2)cc1C#N` [Example 1, N-[2-cyano-4-(2-{[4-(morpholin-4-yl)phenyl]amino}pyrimidin-4-yl)phenyl]-3-methylbutanamide]: the IC50 in experiment [1] was 0.005 to 0.05 µM; in experiment [2], below 0.01 µM.
`Cc1nnsc1C(=O)Nc1ccc(-c2ccnc(Nc3ccc(N4CCOCC4)cc3)n2)cc1C#N` [Example 129, N-[2-cyano-4-(2-{[4-(morpholin-4-yl)phenyl]amino}pyrimidin-4-yl)phenyl]-4-methyl-1,2,3-thiadiazol-5-carboxamide]: the values for the IC50 in experiment [1] and in experiment [2] were below 0.005 µM and below 0.01 µM, respectively.
`N#Cc1cc(-c2ccnc(Nc3ccc(N4CCOCC4)cc3)n2)ccc1O[C@@H]1CCNC1` [compound 470, 5-(2-{[4-(morpholin-4-yl)phenyl]amino}pyrimidin-4-yl)-2-[(3R)-pyrrolidin-3-yloxy]benzonitrile]: the results for the 50% inhibitory concentration (IC50) in experiment [1] and in experiment [2] were 0.005 to 0.05 µM and below 0.01 µM, respectively.

A word on the IC50: it is the midpoint of a concentration-inhibition curve.
